Test results as given in patent US20250222038A1, “COLLAGEN MATRIX OR MEMBRANE WITH ANTIMICROBIAL PROPERTIES” (BIOCELLIX SPA, priority 2017, published 2025).

What was measured:
[1] = system: Gram-negative bacteria (genus Proteus); experiment: Antibiotic sensitivity trial (inhibition halos on agar Müller-Hinton plate), Gram-negative isolate; type: cell-based; parameters: key to Plate 1 Sensitivity Level: Sensitive(S); Intermediate or Moderately sensitive (I); Resistant (R); details: Plate 1 = FIG. 2 left (Gram-negative bacteria); for Plate 1 (Gram-) (mm) inhibition halo: 18-24 hours at 37° C., average for three experiments; for Plate 1 Sensitivity Level: classified according to halo size
Description: (§1) In order to assert the antimicrobial capability of the collagen matrix or membrane, lab testing was carried out. Patient biopsies were collected from different types of infected wounds (neuropathic diabetic foot and biofilms). These samples were homogenized and set to culture for 24 hours to observe if there was bacterial growth or not. When bacterial growth is observed, colonies of these cultures were isolated, and with them, a test for microbial sensitivity to the action of nanometals was carried out. […] In order for this trial to be performed, antibiotics commonly used for eliminating these bacteria and at set concentrations were used as controls. […] In order to analyze the effectiveness of copper nanometals and its effectiveness as antimicrobial agents, three concentrations, 1, 5 and 10 mg/ml, were used. […] The trial was carried out as follows: On the surface of an agar Müller-Hinton plate, 100 μl of a bacterial solution (OD600: 0.4) were inoculated and seeded evenly for bacterial colonies to grow. Then, filter paper discs soaked with known concentrations of the different antibiotics are placed. The antibiotic will spread from the agar filter paper radially. The plate was incubated for 18-24 hours at 37° C., and then the growth inhibition halos are measured by interpreting them according to the available data in databases. The results are expressed as: Sensitive(S), Intermediate or Moderately sensitive (I) and Resistant (R). […] To determine the inhibition halo, the diameter surrounding the sense disc on which bacterial growth was not observed was measured on the plate seeded with bacteria in the presence of different antibiotics. In this case, the inhibition halo is expressed in mm. According to the halo size, the bacteria are classified as sensitive to the antibiotic action, resistant to the antibiotic action or of intermediate resistance to the antibiotic action (data that is published in databases). […] Additionally, the purpose of this trial is to rule out that the matrix alone presents some level of antimicrobial action, therefore, a copper-free matrix was used as control. […] Gram-negative bacteria belong to genus Proteus, and Gram-positive bacteria belong to genus Staphylococcus.

[2] = system: Gram-positive bacteria (genus Staphylococcus); experiment: Antibiotic sensitivity trial (inhibition halos on agar Müller-Hinton plate), Gram-positive isolate; type: cell-based; parameters: key to Plate 2 Sensitivity Level: Sensitive(S); Intermediate or Moderately sensitive (I); Resistant (R); details: Plate 2 = FIG. 2 right (Gram-positive bacteria); for Plate 2 (Gram+) (mm) inhibition halo: 18-24 hours at 37° C., average for three experiments; for Plate 2 Sensitivity Level: classified according to halo size
Description: as §1

SMILES	Plate 1 (Gram-) (mm) inhibition halo [1]	Plate 1 Sensitivity Level [1]	Plate 2 (Gram+) (mm) inhibition halo [2]	Plate 2 Sensitivity Level [2]
CC1(C)S[C@@H]2[C@H](NC(=O)[C@H](N)c3ccccc3)C(=O)N2[C@H]1C(=O)O [AM, Ampicillin]	0 mm	Resistant	12 mm	Intermediate
O=C(O)c1cn(C2CC2)c2cc(N3CCNCC3)c(F)cc2c1=O [CIP, Ciprofloxacin]	28 mm	–	19 mm	–
CC[C@H]1OC(=O)[C@H](C)[C@@H](O[C@H]2C[C@@](C)(OC)[C@@H](O)[C@H](C)O2)[C@H](C)[C@@H](O[C@@H]2O[C@H](C)C[C@H](N(C)C)[C@H]2O)[C@](C)(OC)C[C@@H](C)C(=O)[C@H](C)[C@@H](O)[C@]1(C)O [CLR, Clarithromycin]	15 mm	Intermediate	18 mm	Sensitive
